pIC50: −log10 of the molar value. Values after ≈ are worked out from the molar mass of the structure shown. Like-named read-outs stand apart in the source and are kept apart here.
What was measured:
[1] = tested on: MOLM-13 human acute myeloid leukemia cells; experiment: Proliferation assay, MOLM-13 (Cell Titre-Glo); assay type: cell-based; conditions: MOLM-13, 72-hour exposure, read-out: Inhibition of MOLM-13 cell proliferation IC50
Experimental: (§1) Cultivated tumour cells (HeLa, human cervical tumour cells, ATCC CCL-2; NCI-H460, human non-small cell lung carcinoma cells, ATCC HTB-177; A2780, human ovarian carcinoma cells, ECACC #93112519; DU 145, hormone-independent human prostate carcinoma cells, ATCC HTB-81; HeLa-MaTu-ADR, multidrug-resistant human cervical carcinoma cells, EPO-GmbH Berlin; Caco-2, human colorectal carcinoma cells, ATCC HTB-37; B16F10, mouse melanoma cells, ATCC CRL-6475) were plated at a density of 5,000 cells/well (DU145, HeLa-MaTu-ADR), 3,000 cells/well (NCI-H460, HeLa), 2,500 cells/well (A2780), 1,500 cells/well (Caco-2), or 1,000 cells/well (B16F10) in a 96-well multititer plate in 200 μL of their respective growth medium supplemented 10% fetal calf serum. After 24 hours, the cells of one plate (zero-point plate) were stained with crystal violet (see below), while the medium of the other plates was replaced by fresh culture medium (200 μl), to which the test substances were added in various concentrations (0 μM, as well as in the range of 0.001-10 μM; the final concentration of the solvent dimethyl sulfoxide was 0.5%). The cells were incubated for 4 days in the presence of test substances. Cell proliferation was determined by staining the cells with crystal violet: the cells were fixed by adding 20 μl/measuring point of an 11% glutaric aldehyde solution for 15 minutes at room temperature. After three washing cycles of the fixed cells with water, the plates were dried at room temperature. The cells were stained by adding 100 μl/measuring point of a 0.1% crystal violet solution (pH 3.0). After three washing cycles of the stained cells with water, the plates were dried at room temperature. The dye was dissolved by adding 100 μl/measuring point of a 10% acetic acid solution. The extinction was determined by photometry at a wavelength of 595 nm. The change of cell number, in percent, was calculated by normalization of the measured values to the extinction values of the zero-point plate (=0%) and the extinction of the untreated (0 μm) cells (=100%). The IC50 values (inhibitory concentration at 50% of maximal effect) were determined by means of a 4 parameter fit. Non-adherent MOLM-13 human acute myeloid leukemia cells (DSMZ ACC 554) were seeded at a density of 5,000 cells/well in a 96-well multititer plate in 100 μL of growth medium supplemented 10% fetal calf serum. After 24 hours, cell viability of one plate (zero-point plate) was determined with the Cell Titre-Glo Luminescent Cell Viability Assay (Promega), while 50 μL of test compound containing medium was added to the wells of the other plates (final concentrations in the range of 0.001-10 μM and DMSO controls; the final concentration of the solvent dimethyl sulfoxide was 0.5%). Cell viability was assessed after 72-hour exposure with the Cell Titre-Glo Luminescent Cell Viability Assay (Promega).

[2] = tested on: A2780, human ovarian carcinoma cells; experiment: Proliferation assay, A2780 (crystal violet); assay type: cell-based; conditions: A2780, 4 days, read-out: Inhibition of A2780 cell proliferation IC50
Experimental: as §1

[3] = Equilibrium shake flask solubility assay, thermodynamic solubility in citrate buffer pH 4; assay type: physicochemical; conditions: citrate buffer pH 4, 24 h, room temperature; for solubility at 24 h: citrate buffer, pH 4, aqueous buffer, thermodynamic from solid, read-out: Solubility in aqueous Citrate buffer pH4
Experimental: 4b) Thermodynamic Solubility in Citrate Buffer pH 4
Thermodynamic solubility was determined by an equilibrium shake flask method [Literature: Edward H. Kerns and Li Di (2008) Solubility Methods in: Drug-like Properties: Concepts, Structure Design and Methods, p276-286. Burlington, Mass.: Academic Press].
A saturated solution of the drug was prepared and the solution was mixed for 24 h to ensure that equilibrium has been reached. The solution was centrifuged to remove the insoluble fraction and the concentration of the compound in solution was determined using a standard calibration curve.
To prepare the sample, 1.5 mg solid compound was weighed in a 4 ml glass vial. 1 ml Citrate buffer pH 4 was added. The suspension was put on a stirrer and mixed for 24 hrs at room temperature. The solution was centrifuged afterwards. To prepare the sample for the standard calibration, 0.6 mg solid sample was dissolved in 19 ml acetonitrile/water 1:1. After sonification the solution was filled up with acetonitrile/water 1:1 to 20 ml.
Sample and standards were quantified by HPLC with UV-detection. For each sample two injection volumes (5 and 50 μl) in triplicates were made. Three injection volumes (5 μl, 10 μl and 20 μl) were made for the standard.
The areas of sample- and standard injections as well as the calculation of the solubility value (in mg/l) were determined by using HPLC software (Waters Empower 2 FR).

CDK9/CycT1 = target: T1, CDK9/CycT1 (Homo sapiens, UniProt P50750); experiment: CDK9/CycT1 kinase assay (TR-FRET, 10 μM ATP); assay type: biochemical; conditions: Method 1a
T1 construct: Recombinant full-length His-tagged human CDK9 and CycT1; His; purchased Invitrogen PV4131; host or cells: insect cells
Description: 1a. CDK9/CyeT1 Kinase Assay:
CDK9/CycT1-inhibitory activity of compounds of the present invention was quantified employing the CDK9/CycT1 TR-FRET assay as described in the following paragraphs:
Recombinant full-length His-tagged human CDK9 and CycT1, expressed in insect cells and purified by Ni-NTA affinity chromatography, were purchased from Invitrogen (Cat. No PV4131). As substrate for the kinase reaction biotinylated peptide biotin-Ttds-[…] (C-terminus in amid form) was used which can be purchased e.g. form the company JERINI Peptide Technologies (Berlin, Germany). For the assay 50 nl of a 100 fold concentrated solution of the test compound in DMSO was pipetted into a black low volume 384 well microtiter plate (Greiner Bio-One, Frickenhausen, Germany), 2 μl of a solution of CDK9/CycT1 in aqueous assay buffer [50 mM Tris/HCl pH 8.0, 10 mM MgCl2, 1.0 mM dithiothreitol, 0.1 mM sodium ortho-vanadate, 0.01% (v/v) Nonidet-P40 (Sigma)] were added and the mixture was incubated for 15 min at 22° C. to allow pre-binding of the test compounds to the enzyme before the start of the kinase reaction.
The resulting mixture was incubated 1 h at 22° C. to allow the formation of complex between the phosphorylated biotinylated peptide and the detection reagents. Subsequently the amount of phosphorylated substrate was evaluated by measurement of the resonance energy transfer from the Eu-chelate to the streptavidine-XL.

T1 sequence (P50750 whole entry): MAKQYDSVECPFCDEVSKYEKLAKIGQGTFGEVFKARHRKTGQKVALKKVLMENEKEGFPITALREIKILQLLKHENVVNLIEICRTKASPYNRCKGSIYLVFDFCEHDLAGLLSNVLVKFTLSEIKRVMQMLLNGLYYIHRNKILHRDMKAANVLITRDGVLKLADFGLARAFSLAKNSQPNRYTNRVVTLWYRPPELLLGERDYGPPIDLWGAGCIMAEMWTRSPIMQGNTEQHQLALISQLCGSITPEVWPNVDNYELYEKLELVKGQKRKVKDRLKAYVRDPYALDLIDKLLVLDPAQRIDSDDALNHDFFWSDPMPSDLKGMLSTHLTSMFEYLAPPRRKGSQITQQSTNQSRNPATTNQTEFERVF
T1 sequence (O60563 whole entry partner): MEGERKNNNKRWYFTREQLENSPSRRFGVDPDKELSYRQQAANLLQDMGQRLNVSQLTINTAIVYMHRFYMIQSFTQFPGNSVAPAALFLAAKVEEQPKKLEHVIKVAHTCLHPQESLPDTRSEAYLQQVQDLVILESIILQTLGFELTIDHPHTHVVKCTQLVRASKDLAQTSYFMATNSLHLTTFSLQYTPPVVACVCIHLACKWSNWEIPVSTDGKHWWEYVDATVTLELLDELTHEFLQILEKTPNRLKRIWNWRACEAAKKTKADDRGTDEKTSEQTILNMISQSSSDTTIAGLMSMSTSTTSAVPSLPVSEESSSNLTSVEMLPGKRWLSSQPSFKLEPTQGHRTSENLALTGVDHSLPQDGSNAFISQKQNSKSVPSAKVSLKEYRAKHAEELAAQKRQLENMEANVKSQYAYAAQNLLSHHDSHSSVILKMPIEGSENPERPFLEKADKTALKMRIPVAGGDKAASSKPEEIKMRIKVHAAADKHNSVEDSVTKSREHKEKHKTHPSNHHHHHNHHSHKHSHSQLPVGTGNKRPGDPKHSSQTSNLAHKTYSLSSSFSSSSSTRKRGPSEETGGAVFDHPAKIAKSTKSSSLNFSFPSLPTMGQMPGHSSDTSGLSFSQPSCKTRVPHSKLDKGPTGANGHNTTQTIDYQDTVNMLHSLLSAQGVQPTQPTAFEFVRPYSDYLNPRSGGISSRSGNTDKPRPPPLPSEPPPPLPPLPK

Structure (SMILES)	pIC50 ([1]; Homo sapiens, MOLM-13, 72 h)	pIC50 ([2]; Homo sapiens, A2780, 96 h)	solubility at 24 h [3]	pIC50 (CDK9/CycT1)	pIC50 [1]	pIC50 [2]	Solubility in aqueous Citrate buffer pH4 [3]
COc1cc(F)ccc1-c1cc(Nc2cc(CS(C)(=N)=O)ccn2)ncc1F (racemic) [Example 1, (rac)-5-Fluoro-4-(4-fluoro-2-methoxyphenyl)-N-{4-[(S-methylsulfonimidoyl)methyl]pyridin-2-yl}pyridin-2-amine]	7.72	7.59	489 µg/mL (≈ 1210 µM)				
COc1cc(F)ccc1-c1cc(Nc2cc(CS(=N)(=O)CCN)ccn2)ncc1F (racemic) [Example 9, (rac)-N-(4-{[S-(2-Aminoethyl)sulfonimidoyl]methyl}pyridin-2-yl)-5-fluoro-4-(4-fluoro-2-methoxyphenyl)pyridin-2-amine]	6.92	6.68	660 µg/mL (≈ 1520 µM)	8.10			
CCNC(=O)N=S(C)(=O)Cc1ccnc(Nc2cc(-c3ccc(F)cc3OC)c(F)cn2)c1 (racemic) [Example 12, (rac)-1-Ethyl-3-{[(2-{[5-fluoro-4-(4-fluoro-2-methoxyphenyl)pyridin-2-yl]amino}pyridin-4-yl)methyl](methyl)oxido-λ^6-sulfanylidene}urea]	7.54	7.59	34 µg/mL (≈ 71.5 µM)	8.70			
COc1cc(F)ccc1-c1cc(Nc2cc(CS(C)(=N)=O)cc(F)n2)ncc1F (racemic) [Example 17, (rac)-5-Fluoro-4-(4-fluoro-2-methoxyphenyl)-N-{6-fluoro-4-[(S-methylsulfonimidoyl)methyl]pyridin-2-yl}pyridin-2-amine]	7.70	7.85	3 µg/mL (≈ 7.1 µM)	9.05			
COc1cc(F)ccc1-c1cc(Nc2cc(CS(C)(=N)=O)cc(C(F)(F)F)n2)ncc1F (racemic) [Example 21, (rac)-5-Fluoro-4-(4-fluoro-2-methoxyphenyl)-N-{4-[(S-methylsulfonimidoyl)methyl]-6-(trifluoromethyl)pyridin-2-yl}pyridin-2-amine]	7.77	7.77		8.70			
CCOc1cc(F)ccc1-c1cc(Nc2cc(CS(C)(=N)=O)cc(F)n2)ncc1F (racemic) [Example 26, (rac)-4-(2-Ethoxy-4-fluorophenyl)-5-fluoro-N-{6-fluoro-4-[(S-methylsulfonimidoyl)methyl]pyridin-2-yl}pyridin-2-amine]	7.36	7.44		8.52			
COc1cc(F)ccc1-c1cc(Nc2cc(CS(C)(=O)=NC#N)ccn2)ncc1F (single isomer, unassigned) [Example 10, {[(2-{[5-Fluoro-4-(4-fluoro-2-methoxyphenyl)pyridin-2-yl]amino}pyridin-4-yl)methyl](methyl)oxido-λ^6-sulfanylidene}cyanamide]	7.92	8.00	102 µg/mL (≈ 238 µM)	8.40			
COc1cc(F)ccc1-c1cc(Nc2cc(CS(C)(=N)=O)cc(C(F)(F)F)n2)ncc1F (single isomer, unassigned; (-)) [Example 23, (−)-5-Fluoro-4-(4-fluoro-2-methoxyphenyl)-N-{4-[(S-methylsulfonimidoyl)methyl]-6-(trifluoromethyl)pyridin-2-yl}pyridin-2-amine]					8.00	7.96	45 mg/l

Continued, values first:

pIC50 ([1]; Homo sapiens, MOLM-13, 72 h)	pIC50 ([2]; Homo sapiens, A2780, 96 h)	solubility at 24 h [3]	pIC50 (CDK9/CycT1)	pIC50 [1]	pIC50 [2]	Solubility in aqueous Citrate buffer pH4 [3]	Structure (SMILES)
7.46	7.43	470 µg/mL (≈ 1120 µM)	8.40				COc1cc(F)ccc1-c1cc(Nc2cc(CS(C)(=N)=O)cc(C)n2)ncc1F (racemic) [Example 4, (rac)-5-Fluoro-4-(4-fluoro-2-methoxyphenyl)-N-{6-methyl-4-[(S-methylsulfonimidoyl)methyl]pyridin-2-yl}pyridin-2-amine]
7.26	7.35	730 µg/mL (≈ 1680 µM)	7.89				COc1cc(F)ccc1-c1cc(Nc2cc(CS(=N)(=O)CCO)ccn2)ncc1F (racemic) [Example 8, (rac)-2-{S-[(2-{[5-Fluoro-4-(4-fluoro-2-methoxyphenyl)pyridin-2-yl]amino}pyridin-4-yl)methyl]sulfonimidoyl}ethanol]
7.38	7.64	185 µg/mL (≈ 388 µM)	9.00				CCOC(=O)N=S(C)(=O)Cc1ccnc(Nc2cc(-c3ccc(F)cc3OC)c(F)cn2)c1 (racemic) [Example 11, (rac)-Ethyl{[(2-{[5-fluoro-4-(4-fluoro-2-methoxyphenyl)pyridin-2-yl]amino}pyridin-4-yl)methyl](methyl)oxido-λ^6-sulfanylidene}carbamate]
8.00	7.92	52 µg/mL (≈ 110 µM)	8.70				COc1cc(F)ccc1-c1cc(Nc2cc(CS(C)(=N)=O)cc(C(F)(F)F)n2)ncc1F (single isomer, unassigned; (+)) [Example 22, (+)-5-Fluoro-4-(4-fluoro-2-methoxyphenyl)-N-{4-[(S-methylsulfonimidoyl)methyl]-6-(trifluoromethyl)pyridin-2-yl}pyridin-2-amine]
		699 µg/mL (≈ 1730 µM)		7.40	7.28		COc1cc(F)ccc1-c1cc(Nc2cc(CS(C)(=N)=O)ccn2)ncc1F (single isomer, unassigned; (-)) [Example 3, (−)-5-Fluoro-4-(4-fluoro-2-methoxyphenyl)-N-{4-[(S-methylsulfonimidoyl)methyl]pyridin-2-yl}pyridin-2-amine]
		600 µg/mL					COc1cc(F)ccc1-c1cc(Nc2cc(CS(C)(=N)=O)ccn2)ncc1F.Cl (single isomer, unassigned; enantiomer 2) [Example 14, 5-Fluoro-4-(4-fluoro-2-methoxyphenyl)-N-{4-[(S-methylsulfonimidoyl)methyl]pyridin-2-yl}pyridin-2-amine hydrochloride; enantiomer 2]
